System: osteoclastic bone resorption
Test: Bone resorption screening, CTX release by osteoclasts on bovine bone slices
Format: cell-based, human
Settings: positive control; DMSO negative control set to 100%; 5 days incubation
Excerpt: Studies have determined that osteoclasts are largely derived from CD14 positive monocytes (J. Haemotol, 1999 July; 106(1):167-70). Clonal analysis of haematopoietic cells by surface phenotypes has been used to further identify osteoclast precursor by characterizing osteoclast like cells distinct from other haematopoietic progenitors (Lee et.al; 1992b Muguruma & Lee; 1988). Surface phenotype analysis has shown that human osteoclasts are derived from CD14 monocytes (Massey & Flanagan, 1999). CD 14 marker is strongly expressed on monocytes, the putative osteoclast precursor in peripheral blood and CD14 positive monocytes have been selected for osteoclastogenesis. (Clin. Sci (Lond) 2000, August, 99 (2): 133-40).
The osteoclasts were isolated as CD 14 positive monocytes and were differentiated into osteoclasts for 10-12 days. Hereafter the osteoclasts were lifted by trypsin, counted and seeded on bovine bone slices at a density of 40,000 cells per bone slice. The osteoclasts were seeded on the cone slices for one day before the plant extracts were added. The osteoclasts were hereby allowed to attach and initiate the resorption activity. […]
The bone resorption experiment was ended after 5 days of incubation and the cell viability was measured by the use of the Alamar blue assay as represented in FIG. 3. […]

SMILES: CO/C1=C\C(C)=C\[C@@H](C)[C@@H](O)[C@@H](C)C/C(C)=C/C=C/[C@H](OC)[C@@H]([C@@H](C)[C@@H](O)[C@H](C)[C@@]2(O)C[C@@H](O)[C@H](C)[C@@H](C(C)C)O2)OC1=O [Bafilomycin]
- remaining bone resorption (CTX release) as % of DMSO control: approximately 8%

From patent US20090317501A1, “Pinus Pinea Plant Extracts For Treating Osteoporosis and the Extraction Process Thereof” (priority 2006, published 2009)
